Columns and labels:
APP/PS1 mice = assay: Aβ plaque staining and Aβ ELISA in brains of APP/PS1 mice; format: in vivo; conditions: for amyloid plaque burdens (Aβ1‐42, Aβ1‐16 staining): prevention study, hippocampus and cortex
Procedure: APP/PS1 transgenic mice were purchased from Jackson Laboratory and reproduced in the Shenzhen Center for Disease Control and Prevention (Shenzhen, China). Two‐month‐old APP/PS1 mice were divided into four groups: (1) APP/PS1 + Vehicle group; (2) APP/PS1 + MN‐08 (6 mg/kg) group; (3) APP/PS1 + Memantine (Mem, 5 mg/kg) group; (4) APP/PS1 + Donepezil (Done, 1.3 mg/kg, once daily) group; (5) Two‐month‐old C57BL/6J mice as a control group. The APP/PS1 mice were administered drugs twice a day (Done, once daily) by gastric gavage from ages 2 to 8 months for 6 months successively. Control and vehicle groups received equal volumes of saline.
To evaluate the concentration of soluble and insoluble Aβ in AD mice, the hippocampus and cortex were homogenized in the lysate, which was then centrifuged at 12000 g for 30 min at 4°C. Supernatant samples were collected as soluble Aβ. Sediment of the cortex and hippocampus was resuspended with formic acid, incubated on ice for 60 min and then centrifuged at 12,000 g for 30 min at 4°C. The supernatant and Tris/NaH2PO4 buffer were mixed as insoluble Aβ. The concentration of Aβ was analyzed by ELISA kit of human amyloid β (R&D Systems, Minneapolis, MN, USA) following the manufacturer’s instructions.
Immunohistochemistry and immunofluorescence staining were carried out as previously described (Zhang et al., 2017). Coronal brain sections were incubated with […] sodium citrate (pH 6.0) and heated for 15 min. After cooling to room temperature, the sections were immersed in 3 % H2O2 for 10 min followed by blocking solution (10 % fetal bovine serum, 1 % bovine serum albumin and 0.1 % Triton X-100) for 1 h. Sections were then incubated with the following appropriate primary antibodies overnight at 4°C: anti-Aβ1-42 antibody (#ab10148, 1:1000, Abcam), anti-Aβ1-16 antibody (#803014, 1:1000, Abcam) and anti-NeuN antibody (#ab177487, 1:400, Abcam). After rinsing 3 times, the sections of immunohistochemistry staining were incubated with biotin-conjugated universal secondary antibody (Gene Tech, Shanghai, China). For immunofluorescence staining, the sections were incubated with appropriate secondary antibodies for 2 h at room temperature. Image J software was used to analyze the fluorescence intensity and cell counting from six slices at similar coronal positions of each animal; this was performed by a viewer blinded to the experimental group.

[1] = test system: NMDA receptors (NMDA‐activated current in rat hippocampal neurons); assay: whole-cell patch-clamp recording of NMDA-activated current in primary hippocampal neurons; format: cell-based
[2] = test system: cerebellar granule neurons (CGNs); assay: Hoechst 33342 staining of apoptotic bodies in glutamate-challenged CGNs; format: cell-based, rat; conditions: 24 h glutamate 100 µM
Procedure: CGNs were prepared from the 8-day-old Sprague–Dawley rats as described in our previous publication (Li et al., 2005). Briefly, animals were anesthetized and sacrificed, and their cerebella were collected. Then, the freshly collected cerebella were rinsed in cold Kreb’s buffer-BSA and digested with 0.025 % trypsin incubated in a 37°C for 15 min. The reaction was stopped, and the single cell suspension was obtained through pipetting up and down the sedimentary tissue. CGNs were seeded in basal modified Eagle’s medium (ThermoFisher Scientific, Waltham, MA, USA) supplemented with 10 % fetal bovine serum, 25 mM KCl, 2 mM glutamine and 100 units/mL penicillin/streptomycin at a density of 1.5×10^6 cells/mL. […]
Chromatin condensation, the apoptotic characteristic feature, was determined by Hoechst 33342 staining as described in previous publications with some modifications (Guo et al., 2017; Jiajia et al., 2017). […] The nuclei were visualized by using a fluorescence Leica TCS SPE confocal (Leica, Wetzlar, Germany) at 200× magnification. In the observation, cells with bright blue fragmented nuclei, which were showing condensation of chromatin, were counted as apoptotic cells. Condensed nuclei were scored by counting at least 500 cells of three randomly chosen fields for each sample in three separated experiments.

[3] = test system: primary hippocampal neurons; assay: intracellular Ca2+ by Fluo-4 confocal microscopy in primary hippocampal neurons; format: cell-based, rat; conditions: glutamate 100 µM
Procedure: Rat hippocampal neurons were obtained from 18-day-old Sprague-Dawley rat embryos as previously described with modifications (Subramaniam et al., 2005). The hippocampi were obtained and dissected on ice. Then, the hippocampi were digested with 0.25 % trypsin at 37°C for 15 min. The single neurons were mechanically dissociated by using a Pasteur pipette. The neurons were plated at a density of 2×10^5 cells/mL on 35-mm culture dishes, which were pre-coated with poly-L-lysine (10 μg/mL), in neurobasal eagle’s medium containing 10 % fetal bovine serum, 0.5 mM glutamine, 100 units/mL of penicillin, 100 μg/mL of streptomycin. […]
A confocal laser scanning microscope was used to evaluate relative changes in intracellular calcium concentrations [Ca^2+]i by monitoring Fluo-4 fluorescence after intracellular cleavage of superfused Fluo-4 acetoxymethylester (1 μM, with excitation at 488 nm and emission at 510 nm) (Bkaily, Al-Khoury, Simon, & Jacques, 2017). […] The fluorescence images were obtained by Leica TCS SPE Confocal Microscope and analyzed using the LAS AF software (Leica Microsystems Co., Wetzlar and Mannheim, Germany). The data were obtained by evaluating the fluorescence (F) from selected areas within a cell, following subtraction of background fluorescence, and division by the fluorescence intensity before drug application (F0), expressed as F/F0. […]

`CCC12CC3CC(N)(C1)CC(CO[N+](=O)[O-])(C3)C2` (stereo not drawn) [MN‐08] was tested, and the “amyloid plaque burdens (Aβ1‐42, Aβ1‐16 staining)” value (APP/PS1 mice; MN‐08 6 mg/kg) was “obviously attenuated”, the “soluble and insoluble Aβ1–42 (ELISA)” value (APP/PS1 mice; MN‐08 6 mg/kg, hippocampal and cortical regions) was “significantly decreased” and the “levels of Aβ1–40 (ELISA)” value (APP/PS1 mice; MN‐08 6 mg/kg, hippocampi and cortices) was “no significant difference”. The “IC50 on NMDA‐mediated current compared with memantine” value [1] was “slightly high than memantine”, the “NMDA‐activated current” value ([1]; MN‐08 1–30 µM, whole‐cell patch‐clamp) was “inhibited” and the “NMDA‐activated current after washout of the compound (off‐rate)” value ([1]; NMDA 30 µM, −50 mV) was “recovered rapidly”. The IC50 ([1]; holding potential −50 mV, NMDA 30 μM, rat hippocampal neurons, read-out: IC50 on the inhibition of NMDA‐mediated current) was 7.32 ± 0.23 µM, the “numbers of apoptotic bodies” value ([2]; MN‐08 30 µM) was “significantly reduced” and the “intracellular Ca2+ influx caused by glutamate” value ([3]; MN‐08 30 µM) was “inhibited”.

`CC12CC3CC(C)(C1)CC(N)(C3)C2` [memantine, 1‐amino‐3,5‐dimethyladamantane] was tested, and the “amyloid plaque burdens (Aβ1‐42, Aβ1‐16 staining)” value (APP/PS1 mice; memantine 5 mg/kg) was “obviously attenuated”, the “numbers of apoptotic bodies” value ([2]; memantine 10 µM) was “significantly reduced” and the “intracellular Ca2+ influx caused by glutamate” value ([3]; memantine 10 µM) was “inhibited”.
